Measurements from PubChem BioAssay AID248 (DTP/NCI, 2004).
“And” between values parts separate entries of the source, which are not always exact repeats. Equal entries are not always repeated. Toxic doses and inconclusive results are not listed. Cut-off read from the data, not from the text of the source: active = T/C of 150% or more; inactive = T/C below 125%.

Tested on: L1210 leukemia ip in BDF1 mice, survival T/C
Assay: NCI In Vivo Anticancer Drug Screen. Data for tumor model L1210 Leukemia (intraperitoneal) in B6D2F1 (BDF1) mice
Details: endpoint: mean survival time, higher = longer survival
In short: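 Survival endpoint. Drug-treated group vs vehicle group, expressed as T divided by C. Tumor passaged by transplantation.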

[1] = dose: 100.0 mg/kg/injection, schedule: Q01DX009 (ip), vehicle: saline with Tween-80
[2] = dose: 100.0 mg/kg/injection, schedule: Q04DX003 (ip), vehicle: saline with Tween-80
[3] = dose: 200.0 mg/kg/injection, schedule: Q01DX009 (ip), vehicle: saline with Tween-80
[4] = dose: 200.0 mg/kg/injection, schedule: Q04DX003 (ip), vehicle: saline with Tween-80
[5] = dose: 400.0 mg/kg/injection, schedule: Q01DX009 (ip), vehicle: saline with Tween-80
[6] = dose: 400.0 mg/kg/injection, schedule: Q04DX003 (ip), vehicle: saline with Tween-80
[7] = dose: 100.0 mg/kg/injection, schedule: Q04DX003 (ip), vehicle: saline
[8] = dose: 200.0 mg/kg/injection, schedule: Q04DX003 (ip), vehicle: saline
[9] = dose: 50.0 mg/kg/injection, schedule: Q01DX001 (ip), vehicle: saline
[10] = dose: 100.0 mg/kg/injection, schedule: Q01DX001 (ip), vehicle: saline
[11] = dose: 200.0 mg/kg/injection, schedule: Q01DX001 (ip), vehicle: saline
[12] = dose: 400.0 mg/kg/injection, schedule: Q01DX001 (ip), vehicle: saline
[13] = dose: 100.0 mg/kg/injection, schedule: Q01DX009 (ip), vehicle: saline
[14] = dose: 200.0 mg/kg/injection, schedule: Q01DX009 (ip), vehicle: saline
[15] = dose: 400.0 mg/kg/injection, schedule: Q01DX009 (ip), vehicle: saline
[16] = dose: 400.0 mg/kg/injection, schedule: Q04DX003 (ip), vehicle: saline
[17] = dose: 25.0 mg/kg/injection, schedule: Q01DX009 (ip), vehicle: Klucel (hydroxypropylcellulose) (HPC)
[18] = dose: 50.0 mg/kg/injection, schedule: Q01DX009 (ip), vehicle: Klucel (hydroxypropylcellulose) (HPC)
[19] = dose: 100.0 mg/kg/injection, schedule: Q01DX009 (ip), vehicle: Klucel (hydroxypropylcellulose) (HPC)
[20] = dose: 100.0 mg/kg/injection, schedule: Q04DX002 (ip), vehicle: Klucel (hydroxypropylcellulose) (HPC)
[21] = dose: 200.0 mg/kg/injection, schedule: Q04DX002 (ip), vehicle: Klucel (hydroxypropylcellulose) (HPC)
[22] = dose: 400.0 mg/kg/injection, schedule: Q01DX009 (ip), vehicle: Klucel (hydroxypropylcellulose) (HPC)
[23] = dose: 400.0 mg/kg/injection, schedule: Q04DX002 (ip), vehicle: Klucel (hydroxypropylcellulose) (HPC)
[24] = dose: 200.0 mg/kg/injection, schedule: Q01DX009 (ip), vehicle: Klucel (hydroxypropylcellulose) (HPC)
[25] = dose: 100.0 mg/kg/injection, schedule: Q04DX002 (ip), vehicle: saline
[26] = dose: 200.0 mg/kg/injection, schedule: Q04DX002 (ip), vehicle: saline
[27] = dose: 400.0 mg/kg/injection, schedule: Q04DX002 (ip), vehicle: saline
[28] = dose: 100.0 mg/kg/injection, schedule: Q01DX001 (ip), vehicle: saline with Tween-80
[29] = dose: 200.0 mg/kg/injection, schedule: Q01DX001 (ip), vehicle: saline with Tween-80
[30] = dose: 400.0 mg/kg/injection, schedule: Q01DX001 (ip), vehicle: saline with Tween-80

Measured: T/C

Brc1c(N=Cc2ccccc2)ccc2ccccc12
inactive: [1] 94 % of control | [2] 102 % of control | [3] 87 % of control | [4] 102 % of control | [5] 89 % of control | [6] 89 % of control

O=C(CNC(=O)OCc1ccccc1)NCCCCCCNCCCCCCNC(=O)CNC(=O)OCc1ccccc1
inactive: dose: 1.25 mg/kg/injection, schedule: Q01DX Z (ip), vehicle: saline 93 % of control | dose: 2.5 mg/kg/injection, schedule: Q01DX Z (ip), vehicle: saline 93 % of control | dose: 5.0 mg/kg/injection, schedule: Q01DX Z (ip), vehicle: saline 94 % of control | dose: 10.0 mg/kg/injection, schedule: Q01DX Z (ip), vehicle: saline 93 % of control

OCCSC1=NCCN1
inactive: dose: 100.0 mg/kg/injection, schedule: Q01DX001 (ip), vehicle: carboxymethylcellulose (CMC) 97 % of control | [7] 109 % of control | dose: 200.0 mg/kg/injection, schedule: Q01DX001 (ip), vehicle: carboxymethylcellulose (CMC) 100 % of control | [8] 103 % of control | dose: 400.0 mg/kg/injection, schedule: Q01DX001 (ip), vehicle: carboxymethylcellulose (CMC) 94 % of control

O=C1C2(Cl)C3(Cl)C4(OCCO4)C4(Cl)C2(Cl)C2(Cl)C1(Cl)C3(Cl)C42Cl (stereo not drawn)
inactive: [9] 100 % of control | [10] 100 % of control | [11] 105 % of control | [12] 96 % of control

CCCCCCCCCCCC(=O)OCCOCCOCCOCCOCCOCCOCCOCCOCCO
inactive: [10] 104 % of control | [11] 98 % of control | [12] 98 % of control

COc1ccc(CCN=C2C3CC4CC(C3)CC2C4)cc1OC
inactive: [10] 98 % of control | [11] 98 % of control | [12] 103 % of control

Cc1cccc2c1NC(C)C2C (stereo not drawn)
inactive: [13] 102 % of control | [7] 96 % of control | [14] 98 % of control | [8] 93 % of control | [15] 98 % of control | [16] 93 % of control

Cc1cc(NC(C)C)c(C)cc1NC(C)C
inactive: dose: 12.5 mg/kg/injection, schedule: Q04DX002 (ip), vehicle: Klucel (hydroxypropylcellulose) (HPC) 93 % of control | dose: 25.0 mg/kg/injection, schedule: Q04DX002 (ip), vehicle: Klucel (hydroxypropylcellulose) (HPC) 96 % of control

O=C(Nc1cccc(F)c1)Sc1ccc(Cl)cc1
inactive: [17] 98 % of control | [18] 108 % of control | [19] 105 % of control and 106 % of control and 112 % of control | [20] 95 % of control | [21] 98 % of control | [22] 86 % of control | [23] 109 % of control

CC(=O)Nc1cccc(C(=O)O)c1[N+](=O)[O-]
inactive: [19] 103 % of control | [7] 103 % of control | [24] 97 % of control | [8] 106 % of control | [22] 93 % of control | [16] 103 % of control

CCO/C=N/N(C)c1n[n+]([O-])ccc1C
inactive: [25] 110 % of control | [26] 104 % of control | [27] 101 % of control

COC(=O)c1ccccc1NC(OC)c1cccc([N+](=O)[O-])c1 (stereo not drawn)
inactive: [28] 90 % of control | dose: 100.0 mg/kg/injection, schedule: Q04DX002 (ip), vehicle: saline with Tween-80 93 % of control and 89 % of control | [2] 92 % of control | [29] 92 % of control | dose: 200.0 mg/kg/injection, schedule: Q04DX002 (ip), vehicle: saline with Tween-80 86 % of control and 90 % of control | [4] 92 % of control | [30] 87 % of control | dose: 400.0 mg/kg/injection, schedule: Q04DX002 (ip), vehicle: saline with Tween-80 87 % of control | [6] 89 % of control

O=S(=O)(OCCCl)c1ccc(Cl)c(Cl)c1
inactive: [28] 92 % of control | [29] 100 % of control | [30] 107 % of control

Cc1ccc([N+](=O)[O-])cc1NC(=O)Nc1cccc(Cl)c1Cl
inactive: [20] 86 % of control | [21] 96 % of control | [23] 90 % of control

CC1CC(=O)NC(=O)N1 (stereo not drawn)
inactive: [1] 98 % of control | [2] 105 % of control | [3] 100 % of control | [4] 93 % of control | [5] 106 % of control | [6] 107 % of control

CC(C)[CH2][Sn]([CH2]C(C)C)([CH2]C(C)C)[C](C)(C)C
inactive: [25] 94 % of control | [26] 90 % of control | [27] 100 % of control

CC1NC(c2ccccc2)N(C(Cc2ccccc2)C(=O)O)C1=O (stereo not drawn)
inactive: [9] 94 % of control | [10] 89 % of control | [11] 99 % of control

CC1NCCCNCCCNC(C)c2cccc1n2 (stereo not drawn)
inactive: dose: 12.5 mg/kg/injection, schedule: Q04DX002 (ip), vehicle: saline 92 % of control | dose: 25.0 mg/kg/injection, schedule: Q04DX002 (ip), vehicle: saline 89 % of control

CNC(CNC(CO)CC(C)C)Cc1ccc(OCc2ccccc2)cc1 (stereo not drawn)
inactive: dose: 12.5 mg/kg/injection, schedule: Q01DX009 (ip), vehicle: saline 102 % of control | dose: 25.0 mg/kg/injection, schedule: Q01DX009 (ip), vehicle: saline 91 % of control | dose: 25.0 mg/kg/injection, schedule: Q04DX003 (ip), vehicle: saline 95 % of control | dose: 50.0 mg/kg/injection, schedule: Q01DX009 (ip), vehicle: saline 94 % of control | dose: 50.0 mg/kg/injection, schedule: Q04DX003 (ip), vehicle: saline 95 % of control | [7] 95 % of control

Cc1cc(C)c(NC(=O)Nc2ccccc2F)cc1C
inactive: [17] 98 % of control | [18] 93 % of control | [19] 96 % of control | [20] 102 % of control | [24] 89 % of control | [21] 91 % of control | [23] 115 % of control

CCCN
inactive: [10] 107 % of control | [13] 106 % of control and 107 % of control | [25] 103 % of control and 108 % of control | [7] 103 % of control | [11] 100 % of control | [14] 93 % of control and 109 % of control | [26] 99 % of control and 106 % of control | [8] 96 % of control | [12] 105 % of control | [15] 111 % of control and 117 % of control | [27] 105 % of control and 108 % of control | [16] 96 % of control
